Source: patent US8207172B2 (Bayer Intellectual Property GmbH, priority 2004, dated 2012)
Counter-ions that a name gives are not always drawn.

Legend:
[1] = system: A431 cells (human epidermoid carcinoma); experiment: In vitro tumor cell proliferation assay (Cell Titer-Glo luminescent cell viability), A431; type: cell-based; details: A-431, 72 h, 72 hours of drug exposure, ATP luminescence readout, read-out: IC50, anti-proliferative activity (inhibition of cell proliferation)
Description: (§1) In vitro Tumor Cell Proliferation Assay
(§2) The tumor cell proliferation assay used to test the compounds of the present invention involves a readout called Cell Titer-Glow® Luminescent Cell Viability Assay developed by Promega® (Cunningham, B A “A Growing Issue: Cell Proliferation Assays, Modern kits ease quantification of cell growth” The Scientist 2001, 15(13), 26, and Crouch, S P et al., “The use of ATP bioluminescence as a measure of cell proliferation and cytotoxicity” Journal of Immunological Methods 1993, 160, 81-88), that measures inhibition of cell proliferation. Generation of a luminescent signal corresponds to the amount of ATP present, which is directly proportional to the number of metabolically active (proliferating) cells.
(§3) A431cells (human epidermoid carcinoma, ATCC […]) and BT474 (human breast carcinoma, ATCC […]) were plated at a density of 2.5×10^3 cells/well in 96 well black-clear bottom tissue culture plates in RPMI media with 10% Fetal Bovine Serum and incubated at 37° C. Twenty-four hours later, test compounds are added at a final concentration range from as high […] to as low 64 pM depend on the activities of the tested compounds in serial dilutions at a final DMSO concentration of 0.1%. Cells were incubated for 72 hours at 37° C. in complete growth media after addition of the test compound. After 72 hours of drug exposure, the plates were equilibrated to room temperature for approximately 30 min. Then, using a Promega Cell Titer Glo Luminescent® assay kit, lysis buffer containing 100 microliters of the enzyme luciferase and its substrate, luciferin mixture, was added to each well. The plates were mixed for 2 min on orbital shaker to ensure cell lysis and incubated for 10 min at room temperature to stabilize luminescence signal. The samples were read on VICTOR 2 using Luminescence protocol, and analyzed with Analyze5 software to generate IC50 values.

[2] = system: BT474 (human breast carcinoma); experiment: In vitro tumor cell proliferation assay (Cell Titer-Glo luminescent cell viability), BT474; type: cell-based; details: BT-474, 72 h, BT474 cells, 72 hours of drug exposure, ATP luminescence readout, read-out: IC50, anti-proliferative activity (inhibition of cell proliferation)
Description: as §1, §2, §3

Structure (SMILES)	IC50 [1]	IC50 [2]
OC[C@@H](O)Cn1cc2c(n1)CCc1c-2sc2ncnc(Nc3ccc(OCc4ccccc4)c(Cl)c3)c12 [Example 357, (2S)-3-(6-{[4-(benzyloxy)-3-chlorophenyl]amino}-4,5-dihydro-2H-pyrimido[5′,4′:4,5]thieno[2,3-e]indazol-2-yl)propane-1,2-diol]	≤ 5 µM	–
O=C(CCl)N1CCC(Cn2cc3c(n2)CCc2c-3sc3ncnc(Nc4ccc(OCc5cccc(F)c5)c(Cl)c4)c23)CC1 [Example 233, 2-{[1-(chloroacetyl)piperidin-4-yl]methyl}-N-{3-chloro-4-[(3-fluorobenzyl)oxy]phenyl}-4,5-dihydro-2H-pyrimido[5′,4′:4,5]thieno[2,3-e]indazol-6-amine trifluoroacetate]	–	≤ 1 µM
OC[C@@H](O)Cn1cc2c(n1)CCc1c-2sc2ncnc(Nc3ccc4c(cnn4Cc4ccccc4)c3)c12 [Example 358, (2S)-3-{6-[(1-benzyl-1H-indazol-5-yl)amino]-4,5-dihydro-2H-pyrimido[5′,4′:4,5]thieno[2,3-e]indazol-2-yl}propane-1,2-diol]	≤ 5 µM	–
CN1CCN(CCn2cc3c(n2)CCc2c-3sc3ncnc(Nc4ccc5c(ccn5Cc5ccccc5)c4)c23)CC1 [Example 337, N-(1-benzyl-1H-indol-5-yl)-2-[2-(4-methylpiperazin-1-yl)ethyl]-4,5-dihydro-2H-pyrimido[5′,4′:4,5]thieno[2,3-e]indazol-6-amine]	–	≤ 1 µM
OC[C@H](O)Cn1cc2c(n1)CCc1c-2sc2ncnc(Nc3ccc(OCc4ccccc4)c(Cl)c3)c12 [Example 355, (2R)-3-(6-{[4-(benzyloxy)-3-chlorophenyl]amino}-4,5-dihydro-2H-pyrimido[5′,4′:4,5]thieno[2,3-e]indazol-2-yl)propane-1,2-diol]	≤ 5 µM	–
OC[C@H](O)Cn1cc2c(n1)CCc1c-2sc2ncnc(Nc3ccc4c(cnn4Cc4ccccc4)c3)c12 [Example 353, (2R)-3-{6-[(1-benzyl-1H-indazol-5-yl)amino]-4,5-dihydro-2H-pyrimido[5′,4′:4,5]thieno[2,3-e]indazol-2-yl}propane-1,2-diol]	≤ 5 µM	–
OC[C@H](O)Cn1cc2c(n1)CCc1c-2sc2ncnc(Nc3ccc(OCc4ccccn4)c(Cl)c3)c12 [Example 350, 3-(6-{[3-chloro-4-(pyridin-2-ylmethoxy)phenyl]amino}-4,5-dihydro-2H-pyrimido[5′,4′:4,5]thieno[2,3-e]indazol-2-yl)propane-1,2-diol]	≤ 5 µM	–
OC[C@@H](O)Cn1cc2c(n1)CCc1c-2sc2ncnc(Nc3ccc4c(cnn4Cc4cccc(F)c4)c3)c12 [Example 356, (2S)-3-(6-{[1-(3-fluorobenzyl)-1H-indazol-5-yl]amino}-4,5-dihydro-2H-pyrimido[5′,4′:4,5]thieno[2,3-e]indazol-2-yl)propane-1,2-diol]	≤ 5 µM	–
Cc1cccc(COc2ccc(Nc3ncnc4sc5c(c34)CCc3nn(C[C@H](O)CO)cc3-5)cc2Cl)n1 [Example 359, (2S)-3-[6-({3-chloro-4-[(6-methylpyridin-2-yl)methoxy]phenyl}amino)-4,5-dihydro-2H-pyrimido[5′,4′:4,5]thieno[2,3-e]indazol-2-yl]propane-1,2-diol]	≤ 50 µM	–
CN1CCN(CCn2cc3c(n2)CCc2c-3sc3ncnc(Nc4cccc(Cl)c4)c23)CC1 [Example 47, N-(3-chlorophenyl)-2-[2-(4-methylpiperazin-1-yl)ethyl]-4,5-dihydro-2H-pyrimido[5′,4′:4,5]thieno[2,3-e]indazol-6-amine]	≤ 5 µM	–
c1ccc(Cn2ncc3cc(Nc4ncnc5sc6c(c45)CCc4nn(CCN5CCNCC5)cc4-6)ccc32)cc1 [Example 306, N-(1-benzyl-1H-indazol-5-yl)-2-(2-piperazin-1-ylethyl)-4,5-dihydro-2H-pyrimido[5′,4′:4,5]thieno[2,3-e]indazol-6-amine]	–	≤ 1 µM
OC[C@@H](O)Cn1cc2c(n1)CCc1c-2sc2ncnc(Nc3ccc(OCc4ccccn4)c(Cl)c3)c12 [Example 351, (2S)-3-(6-{[3-chloro-4-(pyridin-2-ylmethoxy)phenyl]amino}-4,5-dihydro-2H-pyrimido[5′,4′:4,5]thieno[2,3-e]indazol-2-yl)propane-1,2-diol]	≤ 5 µM	–
OC[C@@H](O)Cn1cc2c(n1)CCc1c-2sc2ncnc(Nc3ccc(F)c(Cl)c3)c12 [Example 43, (S)-3-[6-(3-Chloro-4-fluoro-phenylamino)-4,5-dihydro-10-thia-2,3,7,9-tetraaza-cyclopenta[a]fluoren-2-yl}-propane-1,2-diol]	≤ 5 µM	–
Fc1ccc(Nc2ncnc3sc4c(c23)CCc2nn(CCN3CCNCC3)cc2-4)cc1Cl [Example 20, N-(3-chloro-4-fluorophenyl)-2-(2-piperazin-1-ylethyl)-4,5-dihydro-2H-pyrimido[5′,4′:4,5]thieno[2,3-e]indazol-6-amine]	≤ 5 µM	–
CN1CCN(CCn2cc3c(n2)CCc2c-3sc3ncnc(Nc4ccc(Cc5cccnc5)cc4)c23)CC1 [Example 348, 2-[2-(4-methylpiperazin-1-yl)ethyl]-N-[4-(pyridin-3-ylmethyl)phenyl]-4,5-dihydro-2H-pyrimido[5′,4′:4,5]thieno[2,3-e]indazol-6-amine]	≤ 50 µM	–
Fc1ccc(Nc2ncnc3sc4c(c23)CCc2nn(CCBr)cc2-4)cc1Cl [Example 6, 2-(2-bromoethyl)-N-(3-chloro-4-fluorophenyl)-4,5-dihydro-2H-pyrimido[5′,4′:4,5]thieno[2,3-e]indazol-6-amine]	–	≤ 5 µM
OCC(CO)n1ncc2c1CCc1c-2sc2ncnc(Nc3ccc(OCc4cccc(F)c4)c(Cl)c3)c12 [Example 361, 2-[6-({3-chloro-4-[(3-fluorobenzyl)oxy]phenyl}amino)-4,5-dihydro-3H-pyrimido[5′,4′:4,5]thieno[2,3-e]indazol-3-yl)propane-1,3-diol]	≤ 50 µM	–
Fc1cccc(COc2ccc(Nc3ncnc4sc5c(c34)CCc3nn(CCC4CCNCC4)cc3-5)cc2Cl)c1 [Example 247, N-{3-chloro-4-[(3-fluorobenzyl)oxy]phenyl}-2-(2-piperidin-4-ylethyl)-4,5-dihydro-2H-pyrimido[5′,4′:4,5]thieno[2,3-e]indazol-6-amine]	–	≤ 1 µM
OCC(CO)n1cc2c(n1)CCc1c-2sc2ncnc(Nc3ccc(OCc4cccc(F)c4)c(Cl)c3)c12 [Example 360, 2-[6-({3-chloro-4-[(3-fluorobenzyl)oxy]phenyl}amino)-4,5-dihydro-2H-pyrimido[5′,4′:4,5]thieno[2,3-e]indazol-2-yl]propane-1,3-diol]	≤ 5 µM	–
OCC(CO)n1ncc2c1CCc1c-2sc2ncnc(Nc3ccc4c(cnn4Cc4cccc(F)c4)c3)c12 [Example 362, 2-(6-{[1-(3-fluorobenzyl)-1H-indazol-5-yl]-amino}-4,5-dihydro-3H-pyrimido[5′,4′:4,5]thieno[2,3-e]indazol-3-yl)propane-1,3-diol]	≤ 5 µM	–
Cc1cccc(COc2ccc(Nc3ncnc4sc5c(c34)CCc3nn(C[C@@H](O)CO)cc3-5)cc2Cl)n1 [Example 352, (2R)-3-[6-({3-chloro-4-[(6-methylpyridin-2-yl)methoxy]phenyl}amino)-4,5-dihydro-2H-pyrimido[5′,4′:4,5]thieno[2,3-e]indazol-2-yl]propane-1,2-diol]	≤ 50 µM	–
CN1CCN(CCn2cc3c(n2)CCc2c-3sc3ncnc(Nc4ccc(OCc5cscn5)c(Cl)c4)c23)CC1 [Example 347, N-[3-chloro-4-(1,3-thiazol-4-ylmethoxy)phenyl]-2-[2-(4-methylpiperazin-1-yl)ethyl]-4,5-dihydro-2H-pyrimido[5′,4′:4,5]thieno[2,3-e]indazol-6-amine bis(trifluoroacetate)]	≤ 50 µM	–
Fc1cccc(COc2ccc(Nc3ncnc4sc5c(c34)CCc3c-5cnn3CCBr)cc2Cl)c1 [Example 81, 3-(2-bromoethyl)-N-{3-chloro-4-[(3-fluorobenzyl)oxy]phenyl}-4,5-dihydro-3H-pyrimido[5′,4′:4,5]thieno[2,3-e]indazol-6-amine]	≤ 50 µM	–
OCC(CO)n1cc2c(n1)CCc1c-2sc2ncnc(Nc3ccc4c(cnn4Cc4cccc(F)c4)c3)c12 [Example 363, 2-(6-{[1-(3-fluorobenzyl)-1H-indazol-5-yl]amino}-4,5-dihydro-2H-pyrimido[5′,4′:4,5]thieno[2,3-e]indazol-2-yl)propane-1,3-diol]	≤ 5 µM	–
OC[C@H](O)Cn1cc2c(n1)CCc1c-2sc2ncnc(Nc3ccc4c(cnn4Cc4cccc(F)c4)c3)c12 [Example 354, (2R)-3-(6-{[1-(3-fluorobenzyl)-1H-indazol-5-yl]amino}-4,5-dihydro-2H-pyrimido[5′,4′:4,5]thieno[2,3-e]indazol-2-yl)propane-1,2-diol]	≤ 5 µM	–
